Measurements: patent publication US9201014B2, “Development of photostable near-IR cyanine dyes for in vivo imaging” (National University of Singapore, priority 2010, dated 2015)

Legend:
[1] = Absorbance and fluorescence maximum wavelengths and quantum yields of the CyNA library; format: physicochemical; details: for λabs, absorbance maximum wavelength / λem, fluorescence maximum wavelength: CyNA library; for φ, quantum yield: in DMSO, Cardiogreen as standard
Description: Since the k values of the different CyNA compounds indicated some dependency on the chemical structure of the amine, the CyNA scaffold was derivatized with a broad range of primary amines (FIGS. 4A-4C). The fluorescence properties of the 80-member CyNA library were measured. The absorption maximum wavelengths ranged from 802 nm to 806 nm, emission maximum wavelengths ranged from 817 nm to 823 nm, and the average quantum yield was approximately 0.10 (Table 2).
All the chemicals (building block amines plus others) and solvents were purchased from Sigma Aldrich, Alfa Aesar, Fluka, MERCK or Acros, and used without further purification. ^1H-NMR and ^13C-NMR spectra were recorded on Bruker Avance 300 NMR and 500 NMR spectrometers, and chemical shifts are expressed in parts per million (ppm). High-resolution mass spectrometry (HRMS) data was recorded on a Micromass VG 7035. Photobleaching experiments were performed using a UVP Blak-Ray® B-100AP high intensity UV lamp (100 W, 365 nm) Spectroscopic and quantum yield data were measured on a SpectraMax M2 spectrophotometer (Molecular Devices), and the data analysis was performed using GraphPrism 5.0. Photobleaching measurements were performed using an Eclipse Ti-U Nikon microscope (filter cube: 750/800) attached to Ti:sappire oscillator that operated in continuous wave mode, and the data was processed using the software NIS-Elements 3.10. In vivo images were taken in an IVIS Spectrum imaging system (Caliper Life Sciences).

[2] = Primary screening of photostability of the CyNA library (time-course fluorescence, 8 h); format: physicochemical; set-up: F/Fo, fluorescent intensity at 8 hours vs 0 hours: unit: %; details: 10 μM in HEPES 100 mM pH 7.4, 2% DMSO
Description: As a primary evaluation of photo stability, the decrease in fluorescence intensity of the 80 CyNA compounds was measured (see Table 2). The average decrease in fluorescence intensity after 8 hours of irradiation by a xenon lamp was approximately 18%. A subset of the most photostable compounds (i.e., F/Fo reported in Table 2 was greater than or equal to 95) was examined under stronger irradiation in various buffers.
10-μM CyNA solutions in 100 mM HEPES buffer (pH 7.4) containing 2% DMSO were placed in a 96-well black plate, and fluorescence intensity measurements were recorded every 10 minutes for a total period of 8 hours (excitation-emission: 790-820 nm). A subset of fourteen compounds selected according to their F8h/Fo quotients, quantum yields and maximum relative fluorescence units (RFU) values was further evaluated in a secondary screening

Row | Compound | λabs, absorbance maximum wavelength [1] | λem, fluorescence maximum wavelength [1] | φ, quantum yield [1] | F/Fo, fluorescent intensity at 8 hours vs 0 hours [2] | max RFU, maximum relative fluorescence units [2]
1 | CCCN1/C(=C/C=C2\CCCC(/C=C/C3=[N+](CCC)c4ccccc4C3(C)C)=C2N(Cc2ccccc2OC)C(C)=O)C(C)(C)c2ccccc21 [CyNA-388] | 803 nm | 819 nm | 0.14 | 97 | 1398.5
2 | CCCN1/C(=C/C=C2\CCCC(/C=C/C3=[N+](CCC)c4ccccc4C3(C)C)=C2N(CCc2ccc(OC)cc2)C(C)=O)C(C)(C)c2ccccc21 [CyNA-395] | 804 nm | 820 nm | 0.07 | 95 | 234.3
3 | CCCN1/C(=C/C=C2\CCCC(/C=C/C3=[N+](CCC)c4ccccc4C3(C)C)=C2N(Cc2ccc(C)cc2)C(C)=O)C(C)(C)c2ccccc21 [CyNA-396] | 804 nm | 820 nm | 0.09 | 96 | 736.1
4 | CCCN1/C(=C/C=C2\CCCC(/C=C/C3=[N+](CCC)c4ccccc4C3(C)C)=C2N(Cc2cccc(C)c2)C(C)=O)C(C)(C)c2ccccc21 [CyNA-398] | 804 nm | 819 nm | 0.07 | 99 | 540.2
5 | CCCN1/C(=C/C=C2\CCCC(/C=C/C3=[N+](CCC)c4ccccc4C3(C)C)=C2N(Cc2ccc(F)cc2F)C(C)=O)C(C)(C)c2ccccc21 [CyNA-399] | 804 nm | 819 nm | 0.10 | 95 | 775.5
6 | CCCN1/C(=C/C=C2\CCCC(/C=C/C3=[N+](CCC)c4ccccc4C3(C)C)=C2N(Cc2ccccn2)C(C)=O)C(C)(C)c2ccccc21 [CyNA-401] | 805 nm | 820 nm | 0.10 | 91 | 856.5
7 | CCCN1/C(=C/C=C2\CCCC(/C=C/C3=[N+](CCC)c4ccccc4C3(C)C)=C2N(Cc2cccc(Cl)c2)C(C)=O)C(C)(C)c2ccccc21 [CyNA-403] | 805 nm | 819 nm | 0.05 | 45 | 261.6
8 | CCCN1/C(=C/C=C2\CCCC(/C=C/C3=[N+](CCC)c4ccccc4C3(C)C)=C2N(CCc2cccc(F)c2)C(C)=O)C(C)(C)c2ccccc21 [CyNA-405] | 806 nm | 820 nm | 0.06 | 83 | 138.5
9 | CCCCCCCCCCN(C(C)=O)C1=C(/C=C/C2=[N+](CCC)c3ccccc3C2(C)C)CCC/C1=C\C=C1\N(CCC)c2ccccc2C1(C)C [CyNA-407] | 805 nm | 820 nm | 0.08 | – | 22.5
10 | CCCCCN(C(C)=O)C1=C(/C=C/C2=[N+](CCC)c3ccccc3C2(C)C)CCC/C1=C\C=C1\N(CCC)c2ccccc2C1(C)C [CyNA-419] | 804 nm | 820 nm | 0.13 | 91 | 835.2
11 | CCCN1/C(=C/C=C2\CCCC(/C=C/C3=[N+](CCC)c4ccccc4C3(C)C)=C2N(CCCN(C)C)C(C)=O)C(C)(C)c2ccccc21 [CyNA-427] | 805 nm | 821 nm | 0.14 | 100 | 1247.4
12 | CCCN1/C(=C/C=C2\CCCC(/C=C/C3=[N+](CCC)c4ccccc4C3(C)C)=C2N(CCC(C)C)C(C)=O)C(C)(C)c2ccccc21 [CyNA-442] | 806 nm | 822 nm | 0.07 | 54 | 424.2
13 | CCCN1/C(=C/C=C2\CCCC(/C=C/C3=[N+](CCC)c4ccccc4C3(C)C)=C2N(Cc2ccco2)C(C)=O)C(C)(C)c2ccccc21 [CyNA-446] | 804 nm | 821 nm | 0.08 | 85 | 709.2
14 | CCCN1/C(=C/C=C2\CCCC(/C=C/C3=[N+](CCC)c4ccccc4C3(C)C)=C2N(CCc2ccccc2F)C(C)=O)C(C)(C)c2ccccc21 [CyNA-477] | 805 nm | 819 nm | 0.09 | – | 169.8
15 | CCCN1/C(=C/C=C2\CCCC(/C=C/C3=[N+](CCC)c4ccccc4C3(C)C)=C2N(CCc2ccc(C)cc2)C(C)=O)C(C)(C)c2ccccc21.[I-] [CyNA-478] | 805 nm | 821 nm | 0.09 | 64 | 121.6
16 | CCCN1/C(=C/C=C2\CCCC(/C=C/C3=[N+](CCC)c4ccccc4C3(C)C)=C2N(CCc2ccccc2Cl)C(C)=O)C(C)(C)c2ccccc21 [CyNA-480] | 803 nm | 817 nm | 0.06 | 51 | 154.8
17 | CCCN1/C(=C/C=C2\CCCC(/C=C/C3=[N+](CCC)c4ccccc4C3(C)C)=C2N(CC(C)C)C(C)=O)C(C)(C)c2ccccc21 [CyNA-487] | 806 nm | 823 nm | 0.04 | 30 | 45.3
18 | CCCN1/C(=C/C=C2\CCCC(/C=C/C3=[N+](CCC)c4ccccc4C3(C)C)=C2N(Cc2ccc(Cl)cc2Cl)C(C)=O)C(C)(C)c2ccccc21 [CyNA-531] | 804 nm | 820 nm | 0.08 | 100 | 187.5
19 | CCCN1/C(=C/C=C2\CCCC(/C=C/C3=[N+](CCC)c4ccccc4C3(C)C)=C2N(Cc2cccc3ccccc23)C(C)=O)C(C)(C)c2ccccc21 [CyNA-542] | 805 nm | 821 nm | 0.08 | 74 | 442.7
20 | CCCN1/C(=C/C=C2\CCCC(/C=C/C3=[N+](CCC)c4ccccc4C3(C)C)=C2N(CC(c2ccccc2)c2ccccc2)C(C)=O)C(C)(C)c2ccccc21 [CyNA-548] | 804 nm | 820 nm | 0.04 | – | 67.6
